Read-outs that look alike come from different tables or passages of the source.
Experiments:
Format in all cases: cell-based
[1] = target: Human Cav 2.2 channels (Homo sapiens, UniProt Q00975); assay: Fluorescent assay for CaV2.2 channels using potassium depolarization (VIPR/FLIPR); settings: FLIPR data; for CAv2.2 IC50 Ratio closed/inact.: ratio closed/inactivated IC50
From the text: Human Cav 2.2 channels were stably expressed in HEK293 cells along with alpha2-delta and beta subunits of voltage-gated calcium channels. An inwardly rectifying potassium channel (Kir2.3) was also expressed in these cells to allow more precise control of the cell membrane potential by extracellular potassium concentration. At low bath potassium concentration, the membrane potential is relatively negative, and is depolarized as the bath potassium concentration is raised. In this way, the bath potassium concentration can be used to regulate the voltage-dependent conformations of the channels. […] After the incubation period, Cav2.2 channel opening is triggered by addition of higher concentration of potassium (70 mM final concentration) to further depolarize the cell. The degree of state-dependent block can be estimated from the inhibitory potency of compounds after incubation in different potassium concentrations.
Calcium influx through Cav 2.2 channels is determined using a calcium sensitive fluorescent dye in combination with a fluorescent plate reader. Fluorescent changes were measured with either a VIPR (Aurora Instruments) or FLIPR (Molecular Devices) plate reader.
1. Seed cells in Poly-D-Lysine Coated 96 or 384-well plate and keep in a 3rC-IO % C02 incubator overnight.
2. Remove media, wash cells with 0.2 mL (96-well plate) or 0.05 mL (384-well plate) Dulbecco's Phosphate Buffered Saline (D-PBS) with calcium & magnesium (Invitrogen; 14040).
3. Add 0.1 mL (96-well plate) or 0.05 mL (384-well plate) of 4˜M fluor-4 (Molecular Probes; F-14202) and 0.02% Pluronic acid (Molecular Probes; P-3(00) prepared in D-PBS with calcium & magnesium (Invitrogen; 14040) supplemented with 10 mM Glucose & 10 mM HepeslNaOH; pH 7.4.
4. Incubate in the dark at 25° C. for 60-70 min.
5. Remove dye, wash cells with 0.1 mL (96-well plate) or 0.06 mL (384-well plate) of 4, 12, 25, or 30 mM Potassium Pre-polarization Buffer (PPB).
6. Add 0.1 mL (96-well plate) or 0.03 mL (384-well plate) of 4, 12, 25, 30 mM PPB with or without test compound.
7. Incubate in the dark at 25° C. for 30 min
8. Read cell plate on VIPR instrument, Excitation=480 nm, Emission=535 nm.
9. With VIPR continuously reading, add 0.1 mL (96-well plate) or 0.03 mL (384-well plate) of Depolarization Buffer (DB), which is 2× the final assay concentration, to the cell plate.

[2] = target: T-type calcium channel (Homo sapiens, UniProt O95180); assay: T-type channel blocking, FLIPR data (Table 6); settings: for CAv3.2 IC50 Ratio closed/inact.: CAv3.2, ratio closed/inactivated IC50
From the text: Another method, high-throughput spectrophotometric assay, utilizes loading of the cell lines with a fluorescent dye sensitive to intracellular calcium concentration and subsequent examination of the effects of compounds on the ability of depolarization by potassium chloride or other means to alter intracellular calcium levels.

[3] = target: CAv1.2 (Homo sapiens, UniProt Q13936); assay: FLIPR data, CAv1.2 channel blocking (Table 6)
[4] = closed state, read-out: CAv2.2 IC50 Closed
[5] = inactivated state, read-out: CAv2.2 IC50 Inact.
[6] = CAv3.2, closed state, read-out: CAv3.2 IC50 Closed
[7] = CAv3.2, inactivated state, read-out: CAv3.2 IC50 Inact.
[8] = closed state, read-out: CAv1.2 IC50 Closed
[9] = inactivated state, read-out: CAv1.2 IC50 Inact.

Chain of Human Cav 2.2 channels (Q00975 whole entry): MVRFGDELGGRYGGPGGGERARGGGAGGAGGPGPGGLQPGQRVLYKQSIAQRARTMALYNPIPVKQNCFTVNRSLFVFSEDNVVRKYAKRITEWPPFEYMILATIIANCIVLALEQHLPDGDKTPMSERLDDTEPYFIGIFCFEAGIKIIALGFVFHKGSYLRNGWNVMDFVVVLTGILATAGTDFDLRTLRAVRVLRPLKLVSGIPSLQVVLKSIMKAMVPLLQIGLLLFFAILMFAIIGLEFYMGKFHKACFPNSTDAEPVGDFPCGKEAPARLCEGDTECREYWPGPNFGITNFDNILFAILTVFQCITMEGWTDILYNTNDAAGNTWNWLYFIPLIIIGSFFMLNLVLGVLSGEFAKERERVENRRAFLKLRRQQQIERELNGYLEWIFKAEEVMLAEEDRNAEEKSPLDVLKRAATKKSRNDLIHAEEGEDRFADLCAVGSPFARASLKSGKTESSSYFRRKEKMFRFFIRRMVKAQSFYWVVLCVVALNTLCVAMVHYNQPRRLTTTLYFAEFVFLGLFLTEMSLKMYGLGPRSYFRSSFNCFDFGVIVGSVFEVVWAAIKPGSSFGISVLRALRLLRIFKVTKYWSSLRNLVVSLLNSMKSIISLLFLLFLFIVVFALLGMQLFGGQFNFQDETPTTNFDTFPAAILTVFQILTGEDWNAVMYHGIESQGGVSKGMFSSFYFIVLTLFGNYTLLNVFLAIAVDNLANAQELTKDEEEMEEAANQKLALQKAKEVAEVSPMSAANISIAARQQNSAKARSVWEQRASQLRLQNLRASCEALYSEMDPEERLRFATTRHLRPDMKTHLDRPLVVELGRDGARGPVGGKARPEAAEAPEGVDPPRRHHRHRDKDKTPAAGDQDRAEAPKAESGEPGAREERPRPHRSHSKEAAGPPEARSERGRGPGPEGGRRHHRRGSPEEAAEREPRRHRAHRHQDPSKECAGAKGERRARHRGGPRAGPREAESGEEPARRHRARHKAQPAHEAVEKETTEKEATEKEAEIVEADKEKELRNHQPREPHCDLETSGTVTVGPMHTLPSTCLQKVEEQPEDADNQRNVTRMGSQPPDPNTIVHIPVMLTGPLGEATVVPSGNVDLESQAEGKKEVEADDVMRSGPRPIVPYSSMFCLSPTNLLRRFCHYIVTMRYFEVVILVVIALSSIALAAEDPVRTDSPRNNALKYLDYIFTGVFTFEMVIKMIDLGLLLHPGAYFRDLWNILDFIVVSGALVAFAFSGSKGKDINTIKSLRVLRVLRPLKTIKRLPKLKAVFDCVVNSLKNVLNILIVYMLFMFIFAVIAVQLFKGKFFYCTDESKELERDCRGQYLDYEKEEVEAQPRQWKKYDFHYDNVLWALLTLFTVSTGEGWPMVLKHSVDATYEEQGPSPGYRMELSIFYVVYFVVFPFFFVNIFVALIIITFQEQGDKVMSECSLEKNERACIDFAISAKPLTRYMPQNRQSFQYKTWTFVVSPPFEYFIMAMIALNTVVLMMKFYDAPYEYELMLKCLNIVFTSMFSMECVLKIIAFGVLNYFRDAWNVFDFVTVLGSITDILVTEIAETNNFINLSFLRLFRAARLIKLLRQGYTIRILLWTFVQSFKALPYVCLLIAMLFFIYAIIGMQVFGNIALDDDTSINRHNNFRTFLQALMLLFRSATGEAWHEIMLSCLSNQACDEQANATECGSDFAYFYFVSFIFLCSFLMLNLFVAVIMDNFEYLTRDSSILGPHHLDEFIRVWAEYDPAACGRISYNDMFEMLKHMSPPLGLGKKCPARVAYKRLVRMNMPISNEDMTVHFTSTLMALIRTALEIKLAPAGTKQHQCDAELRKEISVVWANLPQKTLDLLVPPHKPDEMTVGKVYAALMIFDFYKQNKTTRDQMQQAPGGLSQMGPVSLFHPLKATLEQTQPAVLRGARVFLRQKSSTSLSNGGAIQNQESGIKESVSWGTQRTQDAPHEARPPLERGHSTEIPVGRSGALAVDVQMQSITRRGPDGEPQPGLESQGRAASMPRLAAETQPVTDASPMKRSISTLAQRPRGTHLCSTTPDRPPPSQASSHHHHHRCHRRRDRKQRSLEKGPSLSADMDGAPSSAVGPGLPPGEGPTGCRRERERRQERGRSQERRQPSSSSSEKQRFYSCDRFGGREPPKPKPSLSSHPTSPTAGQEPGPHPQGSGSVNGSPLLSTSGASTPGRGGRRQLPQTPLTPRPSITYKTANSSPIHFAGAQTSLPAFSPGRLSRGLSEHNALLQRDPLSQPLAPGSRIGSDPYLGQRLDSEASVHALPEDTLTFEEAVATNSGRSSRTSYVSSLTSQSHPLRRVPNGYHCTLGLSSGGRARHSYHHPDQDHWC
Chain of Human Cav 2.2 channels (P54289 25-1103 partner): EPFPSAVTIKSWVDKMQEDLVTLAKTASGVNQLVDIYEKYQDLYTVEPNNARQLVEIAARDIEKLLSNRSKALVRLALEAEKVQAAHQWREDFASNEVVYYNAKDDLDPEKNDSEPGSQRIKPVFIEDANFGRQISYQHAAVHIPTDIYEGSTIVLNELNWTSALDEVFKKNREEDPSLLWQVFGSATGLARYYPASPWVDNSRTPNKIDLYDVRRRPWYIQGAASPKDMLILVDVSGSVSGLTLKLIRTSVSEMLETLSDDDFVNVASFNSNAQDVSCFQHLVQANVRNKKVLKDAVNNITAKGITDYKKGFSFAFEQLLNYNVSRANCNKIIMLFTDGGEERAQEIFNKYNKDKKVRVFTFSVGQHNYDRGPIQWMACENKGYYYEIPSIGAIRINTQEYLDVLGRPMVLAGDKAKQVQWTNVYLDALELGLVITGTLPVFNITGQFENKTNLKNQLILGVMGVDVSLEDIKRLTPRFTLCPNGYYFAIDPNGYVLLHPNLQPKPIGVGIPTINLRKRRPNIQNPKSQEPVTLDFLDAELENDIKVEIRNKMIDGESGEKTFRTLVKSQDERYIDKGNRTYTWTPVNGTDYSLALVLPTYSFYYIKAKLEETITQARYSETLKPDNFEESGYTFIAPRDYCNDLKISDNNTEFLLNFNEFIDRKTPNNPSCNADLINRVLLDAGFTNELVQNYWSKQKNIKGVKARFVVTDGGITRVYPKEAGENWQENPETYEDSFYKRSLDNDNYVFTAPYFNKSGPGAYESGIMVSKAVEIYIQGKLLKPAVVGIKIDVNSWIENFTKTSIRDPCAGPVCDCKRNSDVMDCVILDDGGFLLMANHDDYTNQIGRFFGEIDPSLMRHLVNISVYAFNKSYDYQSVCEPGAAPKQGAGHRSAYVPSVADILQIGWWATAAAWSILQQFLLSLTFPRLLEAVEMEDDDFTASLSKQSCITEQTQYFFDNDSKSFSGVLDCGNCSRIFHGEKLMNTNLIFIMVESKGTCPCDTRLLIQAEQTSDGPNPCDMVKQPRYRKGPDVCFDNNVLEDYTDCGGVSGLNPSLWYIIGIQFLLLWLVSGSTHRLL
Chain of Human Cav 2.2 channels (P54284 whole entry partner): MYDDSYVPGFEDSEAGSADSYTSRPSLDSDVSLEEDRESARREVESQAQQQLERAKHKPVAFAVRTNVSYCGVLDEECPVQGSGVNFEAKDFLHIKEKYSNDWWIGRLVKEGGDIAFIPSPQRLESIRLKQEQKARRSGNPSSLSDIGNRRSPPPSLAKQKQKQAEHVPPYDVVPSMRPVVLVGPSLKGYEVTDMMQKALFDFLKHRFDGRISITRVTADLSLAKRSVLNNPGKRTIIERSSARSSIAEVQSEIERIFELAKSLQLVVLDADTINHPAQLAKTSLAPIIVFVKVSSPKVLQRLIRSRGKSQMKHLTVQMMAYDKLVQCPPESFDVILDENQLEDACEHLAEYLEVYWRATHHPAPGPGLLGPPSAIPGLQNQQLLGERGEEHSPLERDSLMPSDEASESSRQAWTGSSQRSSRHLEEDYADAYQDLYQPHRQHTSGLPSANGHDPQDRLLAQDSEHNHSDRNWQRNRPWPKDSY

| IC50 [1, 4] | IC50 [1, 5] | CAv2.2 IC50 Ratio closed/inact. [1] | IC50 [2, 6] | IC50 [2, 7] | CAv3.2 IC50 Ratio closed/inact. [2] | SMILES | IC50 [3, 8] | IC50 [3, 9] |
| --- | --- | --- | --- | --- | --- | --- | --- | --- |
| 3.24 µM | 0.43 µM | 7.5 | 8.12 µM | 5.83 µM | 1.4 | O=C(NC[C@H]1C[C@H](S(=O)(=O)c2cccc(C(F)(F)F)c2)C1)c1ccc(Cl)cn1 [Compound 573] | ≥ 10 µM | ≥ 10 µM |
| 10 µM | 0.64 µM | 15.6 | – | – | – | CC(C)([C@H]1C[C@@H](NC(=O)c2ccc(S(C)(=O)=O)cc2Cl)C1)S(=O)(=O)c1cccc(C(F)(F)F)c1 [Compound 577] | ≥ 10 µM | ≥ 10 µM |
| 10 µM | 1.12 µM | 8.9 | – | 10 µM | – | CC(C)([C@H]1C[C@@H](NC(=O)c2ncc(C(F)(F)F)cn2)C1)S(=O)(=O)c1cccc(C(F)(F)F)c1 [Compound 583] | ≥ 10 µM | – |
| 10 µM | 1.08 µM | 9.3 | ≥ 10 µM | 10 µM | 1 | CC(C)([C@H]1C[C@@H](NC(=O)c2ccc(C(F)(F)F)cc2S(C)(=O)=O)C1)S(=O)(=O)c1cc(F)cc(C(F)(F)F)c1 [Compound 585] | – | ≥ 10 µM |
| 5.86 µM | 0.95 µM | 6.2 | ≥ 10 µM | 3.27 µM | 3.1 | CC(C)([C@H]1C[C@@H](NC(=O)c2ccnc(C(F)(F)F)n2)C1)S(=O)(=O)c1cc(F)cc(C(F)(F)F)c1 [Compound 588] | ≥ 10 µM | ≥ 10 µM |
| 10 µM | 0.46 µM | 21.7 | ≥ 10 µM | 10 µM | 1 | CC(C)([C@H]1C[C@H](NC(=O)c2ccc(C(F)(F)F)cc2S(C)(=O)=O)C1)S(=O)(=O)c1cc(F)cc(C(F)(F)F)c1 [Compound 592] | ≥ 10 µM | ≥ 10 µM |
| 10 µM | 4.38 µM | 2.3 | ≥ 10 µM | – | – | Cc1nc(S(=O)(=O)N[C@H]2C[C@@H](C(C)(C)S(=O)(=O)c3cc(F)cc(C(F)(F)F)c3)C2)cn1C [Compound 604] | ≥ 10 µM | ≥ 10 µM |
| 10 µM | 0.9 µM | 11.1 | ≥ 10 µM | 10 µM | 1 | CC(C)([C@H]1C[C@@H](NC(=O)c2ncc(C(F)(F)F)cc2S(C)(=O)=O)C1)S(=O)(=O)c1cccc(OC(F)(F)F)c1 [Compound 644] | – | ≥ 10 µM |
| 8.47 µM | 1.44 µM | 5.9 | – | 10 µM | – | CC(C)([C@H]1C[C@H](NC(=O)CC2(N)CCCCC2)C1)S(=O)(=O)c1cc(F)cc(C(F)(F)F)c1 [Compound 654] | ≥ 10 µM | ≥ 10 µM |
| 6.52 µM | 1.16 µM | 5.6 | – | 10 µM | – | CC(C)([C@H]1C[C@@H](NC(=O)CC2(N)CCCCC2)C1)S(=O)(=O)c1cccc(OC(F)(F)F)c1 [Compound 655] | ≥ 10 µM | ≥ 10 µM |
| 5.52 µM | 0.87 µM | 6.3 | – | 10 µM | – | CC(C)([C@H]1C[C@H](NC(=O)CC2(N)CCCCC2)C1)S(=O)(=O)c1cccc(OC(F)(F)F)c1 [Compound 656] | ≥ 10 µM | ≥ 10 µM |
| 9.32 µM | 2.15 µM | 4.3 | – | – | – | CNC1(CC(=O)N[C@H]2C[C@@H](C(C)(C)S(=O)(=O)c3cccc(C(F)(F)F)c3)C2)CCCCC1 [Compound 657] | ≥ 10 µM | – |
| 10 µM | 2.64 µM | 3.8 | ≥ 10 µM | 10 µM | 1 | CNC1(CC(=O)N[C@H]2C[C@@H](C(C)(C)S(=O)(=O)c3cc(F)cc(C(F)(F)F)c3)C2)CCCCC1 [Compound 658] | ≥ 10 µM | – |

— US20120245137A1 (Zalicus Pharmaceuticals Ltd., priority 2009, published 2012)
